Assay results from PMC5242521 (PLoS ONE, 2017).
Where “and” joins values, the source holds several entries; their conditions need not be identical. Identical values can stand only once.

How the values were obtained:
OCT1 [1] = biological target: T1, OCT1 (Homo sapiens, UniProt O15245); assay: OCT1 activity: DAPI accumulation in HEK-OCT1 cells; conditions: for effect on OCT1 activity: pyrethroid 100 μM, DAPI; for inhibition at 100 μM: human
T1 sequence (O15245 1-554): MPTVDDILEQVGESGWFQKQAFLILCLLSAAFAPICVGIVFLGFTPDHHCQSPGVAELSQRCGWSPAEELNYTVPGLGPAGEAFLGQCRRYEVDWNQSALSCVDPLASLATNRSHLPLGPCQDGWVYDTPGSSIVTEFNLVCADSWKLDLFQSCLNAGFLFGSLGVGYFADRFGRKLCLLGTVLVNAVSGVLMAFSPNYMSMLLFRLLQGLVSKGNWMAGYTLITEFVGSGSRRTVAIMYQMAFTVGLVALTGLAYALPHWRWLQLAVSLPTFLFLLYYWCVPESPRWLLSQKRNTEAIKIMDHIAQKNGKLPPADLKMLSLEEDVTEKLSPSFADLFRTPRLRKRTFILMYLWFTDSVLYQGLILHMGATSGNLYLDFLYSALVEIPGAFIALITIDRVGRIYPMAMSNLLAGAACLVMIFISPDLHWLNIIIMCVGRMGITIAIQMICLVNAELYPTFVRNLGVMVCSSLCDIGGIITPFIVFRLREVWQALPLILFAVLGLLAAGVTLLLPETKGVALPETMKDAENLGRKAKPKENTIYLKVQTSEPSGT
Procedure: (§1) The effects of pyrethroids on activity of ABC and SLC transporters were determined through measuring cellular accumulation or retention of fluorescent or radiolabeled reference substrates for transporters, in the presence or absence of reference inhibitors, as previously described. The nature of cells and reference substrates and inhibitors used for transport assays are summarized in S3 Table.
(§2) The nature of substrates and reference inhibitors and the incubation times with substrates, that varied according to the transporter, were selected in agreement with previous studies and are indicated in S3 Table. The total incubation volume with substrates was 200 μL/well. […] An aliquot of cell lysate (5 μL) was then taken for determining cellular protein content by the Bradford method.
(§3) Intracellular concentrations of reference substrates were initially expressed as fluorescence arbitrary units (for fluorescent dye substrates) or as moles (for radiolabeled substrates) and normalized to cellular protein content, determined by the Bradford method. They were finally used for calculating percentage of transporter activity, according to the following equations [41, 45]: %ABCtransporter activity=([Substrateref inh]-[Substratepyrethroid])×100/([Substrateref inh]-[Substratecontrol]) (1) %SLC transporter activity=([Substratepyrethroid]-[Substratref inh])×100/([Substratecontrol]-[Substrateref inh]) (2) with [Substratepyrethroid] = cellular concentration of reference substrate in the presence of pyrethroid, [Substrateref inh] = cellular concentration of reference substrate in the presence of reference inhibitor and [Substratecontrol] = cellular concentration of reference substrate in control cells not exposed to pyrethroid or reference inhibitor.
(§4) The initial tested concentration of pyrethroids was 100 μM. […] Such concentrations were calculated using GraphPad Prism software (GraphPad Software, La Jolla, CA), through nonlinear regression based on the four parameter logistic function using the following equations: […]

OCT2 = biological target: T2, OCT2 (Homo sapiens, UniProt O15244); assay: OCT2 activity: rhodamine 123 accumulation in HEK-OCT2 cells; conditions: human
T2 sequence (O15244 1-555): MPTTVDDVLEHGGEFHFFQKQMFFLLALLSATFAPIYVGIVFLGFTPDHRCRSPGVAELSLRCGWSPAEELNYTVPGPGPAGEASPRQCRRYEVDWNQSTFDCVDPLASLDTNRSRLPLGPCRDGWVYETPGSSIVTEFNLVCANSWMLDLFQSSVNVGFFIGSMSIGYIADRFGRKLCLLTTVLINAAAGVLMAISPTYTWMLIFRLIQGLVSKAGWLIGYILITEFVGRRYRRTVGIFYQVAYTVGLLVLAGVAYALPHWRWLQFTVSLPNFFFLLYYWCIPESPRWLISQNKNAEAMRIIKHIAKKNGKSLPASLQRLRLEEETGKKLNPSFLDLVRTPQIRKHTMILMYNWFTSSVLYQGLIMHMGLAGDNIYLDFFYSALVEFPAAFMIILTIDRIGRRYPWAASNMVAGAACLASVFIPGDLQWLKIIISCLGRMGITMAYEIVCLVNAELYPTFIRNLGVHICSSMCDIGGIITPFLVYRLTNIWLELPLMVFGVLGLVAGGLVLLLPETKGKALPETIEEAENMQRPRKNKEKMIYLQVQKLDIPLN
Procedure: as §1, §2, §3, §4

OCT1 [2] = biological target: T1, OCT1; assay: Trans-stimulation assay of TEA uptake in OCT1-transfected HEK293 cells; type: cell-based; conditions: pre-loading 60 min with 100 μM pyrethroid or 2 mM unlabeled TEA; HEK-OCT1 cells
Procedure: Trans-stimulation assays were performed as previously described. Briefly, OCT1-transfected HEK293 cells were first preloaded with 2 mM unlabeled TEA or 100 μM pyrethroid for 60 min at 37°c in the transport assay medium described above. After washing twice with PBS, cells were next re-incubated in transport assay medium containing 29 μM [1-^14C]-TEA for 5 min at 37°C. After washing twice with PBS, cells were lysed in distilled water and intracellular accumulation of [1-^14C]-TEA was then determined by scintillation counting.
Intracellular accumulation of TEA was then determined by scintillation counting. […] After washing, cells were next re-incubated with 29 μM [1-^14C]-TEA for 5 min at 37°C. Intracellular accumulation of [1-^14C]-TEA was then determined by scintillation counting.

[3] = parameters: method as in PMID 12708229; conditions: human subjects environmentally exposed; ref [70]; cited from earlier work
P-gp [4] = biological target: P-gp (Homo sapiens, UniProt P08183); assay: P-gp activity: rhodamine 123 accumulation in MCF7R cells; conditions: pyrethroid 100 μM
Procedure: as §1
(§5) For accumulation assays (performed for all transporters, excepted BCRP), transporter-expressing cells usually cultured in 48-well plates were first incubated at 37°C with reference substrates in the absence (control) or presence of pyrethroids or reference inhibitors, in a well-defined transport assay medium, consisting of 136 mM NaCl, 5.3 mM KCl, 1.1mM KH2PO4, 0.8 mM MgSO4, 1.8 mM CaCl2, 10 mM HEPES, 11 mM D-glucose and adjusted to pH = 7.4 (excepted for MATE transporter assays, for which pH was set to 8.4). The nature of substrates and reference inhibitors and the incubation times with substrates, that varied according to the transporter, were selected in agreement with previous studies and are indicated in S3 Table. The total incubation volume with substrates was 200 μL/well. After washing twice in phosphate-buffered saline (PBS) (200 μL/well/washing), cells were lysed in distilled water (155 μL/well). An aliquot of cell lysate (5 μL) was then taken for determining cellular protein content by the Bradford method. The rest of lysate (150 μL/well) was used for measuring intracellular accumulation of reference substrates by scintillation counting or spectrofluorimetry using a SpectraMax Gemini SX spectrofluorometer (Molecular Devices, Sunnyvale, CA, USA) (excitation and emission wavelengths were 485 and 535 nm, respectively, for rhodamine 123 and fluorescein, and 355 and 460 nm, respectively, for DAPI).
as §3, §4

P-gp [5] = conditions: ref [26], [27]; cited from earlier work
OAT1 = biological target: T3, OAT1 (Homo sapiens, UniProt Q4U2R8); assay: OAT1 activity: fluorescein accumulation in HEK-OAT1 cells; type: cell-based; conditions: human, pH 7.4; pyrethroid 100 μM; HEK-OAT1 cells, fluorescein
T3 construct: host or cells: HEK293
T3 sequence (Q4U2R8 1-563): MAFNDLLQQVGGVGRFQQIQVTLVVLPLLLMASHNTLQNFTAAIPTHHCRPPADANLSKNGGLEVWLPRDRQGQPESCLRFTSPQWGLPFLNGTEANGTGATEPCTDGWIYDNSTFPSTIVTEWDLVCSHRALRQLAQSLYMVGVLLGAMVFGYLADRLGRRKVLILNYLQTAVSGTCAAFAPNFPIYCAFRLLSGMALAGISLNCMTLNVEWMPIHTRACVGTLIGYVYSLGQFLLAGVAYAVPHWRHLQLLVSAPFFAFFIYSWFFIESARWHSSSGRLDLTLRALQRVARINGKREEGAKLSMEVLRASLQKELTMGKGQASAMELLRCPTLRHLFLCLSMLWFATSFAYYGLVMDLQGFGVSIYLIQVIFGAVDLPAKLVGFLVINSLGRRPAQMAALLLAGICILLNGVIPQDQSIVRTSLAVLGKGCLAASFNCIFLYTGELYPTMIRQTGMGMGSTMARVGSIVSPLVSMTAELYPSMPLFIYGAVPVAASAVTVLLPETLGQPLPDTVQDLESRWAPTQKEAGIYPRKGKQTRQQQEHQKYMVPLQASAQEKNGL
Procedure: The effects of pyrethroids on activity of ABC and SLC transporters were determined through measuring cellular accumulation or retention of fluorescent or radiolabeled reference substrates for transporters, in the presence or absence of reference inhibitors, as previously described [41].
The total incubation volume with substrates was 200 μL/well. […] An aliquot of cell lysate (5 μL) was then taken for determining cellular protein content by the Bradford method [44].
Intracellular concentrations of reference substrates were initially expressed as fluorescence arbitrary units (for fluorescent dye substrates) or as moles (for radiolabeled substrates) and normalized to cellular protein content, determined by the Bradford method [44]. They were finally used for calculating percentage of transporter activity, according to the following equations [41, 45]: %ABCtransporter activity=([Substrateref inh]-[Substratepyrethroid])×100/([Substrateref inh]-[Substratecontrol]) (1) %SLC transporter activity=([Substratepyrethroid]-[Substratref inh])×100/([Substratecontrol]-[Substrateref inh]) (2) with [Substratepyrethroid] = cellular concentration of reference substrate in the presence of pyrethroid, [Substrateref inh] = cellular concentration of reference substrate in the presence of reference inhibitor and [Substratecontrol] = cellular concentration of reference substrate in control cells not exposed to pyrethroid or reference inhibitor.

OAT3 = biological target: T4, OAT3 (Homo sapiens, UniProt Q8TCC7); assay: OAT3 activity: fluorescein accumulation in HEK-OAT3 cells; conditions: human, pH 7.4
T4 sequence (Q8TCC7 1-542): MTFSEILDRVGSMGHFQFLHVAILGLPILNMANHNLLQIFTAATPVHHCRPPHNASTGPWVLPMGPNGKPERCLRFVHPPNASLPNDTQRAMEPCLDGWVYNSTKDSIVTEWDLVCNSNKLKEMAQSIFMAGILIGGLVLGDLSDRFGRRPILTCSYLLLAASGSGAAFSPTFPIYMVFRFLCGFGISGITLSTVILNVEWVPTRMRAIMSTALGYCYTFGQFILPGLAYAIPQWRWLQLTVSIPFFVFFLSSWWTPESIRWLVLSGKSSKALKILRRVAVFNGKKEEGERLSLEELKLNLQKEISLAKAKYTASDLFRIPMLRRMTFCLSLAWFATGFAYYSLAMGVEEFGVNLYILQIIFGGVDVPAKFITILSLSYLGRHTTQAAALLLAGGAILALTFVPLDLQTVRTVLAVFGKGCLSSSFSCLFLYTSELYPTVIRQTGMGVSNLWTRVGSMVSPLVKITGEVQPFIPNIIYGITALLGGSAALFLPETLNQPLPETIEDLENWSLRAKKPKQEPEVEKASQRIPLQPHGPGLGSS
Procedure: as §1, §5, §3, §4

[6] = HEK-OCT2 cells, pH 7.4, probe rhodamine 123

Chain of P-gp (Homo sapiens, UniProt P08183) (P08183 whole entry): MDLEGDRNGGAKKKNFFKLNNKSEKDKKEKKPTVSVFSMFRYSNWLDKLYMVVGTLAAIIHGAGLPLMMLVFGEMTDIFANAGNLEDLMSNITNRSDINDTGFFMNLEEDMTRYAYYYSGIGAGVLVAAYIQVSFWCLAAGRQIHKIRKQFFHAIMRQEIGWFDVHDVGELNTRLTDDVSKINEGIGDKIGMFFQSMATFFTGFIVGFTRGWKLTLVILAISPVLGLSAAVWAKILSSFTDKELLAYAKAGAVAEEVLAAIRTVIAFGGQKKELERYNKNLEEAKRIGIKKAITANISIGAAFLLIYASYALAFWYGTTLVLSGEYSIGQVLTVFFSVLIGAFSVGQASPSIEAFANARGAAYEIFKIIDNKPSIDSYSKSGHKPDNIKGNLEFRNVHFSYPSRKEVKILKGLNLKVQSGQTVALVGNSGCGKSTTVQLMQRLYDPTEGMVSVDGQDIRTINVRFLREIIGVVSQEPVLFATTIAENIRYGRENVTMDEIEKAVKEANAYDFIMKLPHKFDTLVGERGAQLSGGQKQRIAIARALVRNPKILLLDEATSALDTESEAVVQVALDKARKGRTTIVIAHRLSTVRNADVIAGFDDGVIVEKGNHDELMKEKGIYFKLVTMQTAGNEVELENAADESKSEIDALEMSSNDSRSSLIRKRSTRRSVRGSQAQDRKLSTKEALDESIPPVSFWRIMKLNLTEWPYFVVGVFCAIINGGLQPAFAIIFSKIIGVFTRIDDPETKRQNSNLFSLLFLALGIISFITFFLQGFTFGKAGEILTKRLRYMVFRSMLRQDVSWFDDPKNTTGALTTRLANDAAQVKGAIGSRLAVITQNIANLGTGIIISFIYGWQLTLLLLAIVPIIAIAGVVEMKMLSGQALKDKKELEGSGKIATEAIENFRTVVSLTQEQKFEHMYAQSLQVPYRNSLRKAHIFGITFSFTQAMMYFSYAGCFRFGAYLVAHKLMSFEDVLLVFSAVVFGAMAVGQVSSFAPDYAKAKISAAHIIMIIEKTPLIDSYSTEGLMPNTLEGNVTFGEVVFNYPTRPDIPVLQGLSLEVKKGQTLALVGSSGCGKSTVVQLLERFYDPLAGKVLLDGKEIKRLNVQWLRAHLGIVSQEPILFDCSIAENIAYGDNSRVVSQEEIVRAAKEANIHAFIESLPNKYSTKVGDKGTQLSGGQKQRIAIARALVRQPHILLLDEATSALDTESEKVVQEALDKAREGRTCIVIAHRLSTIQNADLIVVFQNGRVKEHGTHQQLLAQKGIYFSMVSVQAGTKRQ

Question: For `Cc1c(COC(=O)[C@@H]2[C@H](/C=C(\Cl)C(F)(F)F)C2(C)C)cccc1-c1ccccc1` (racemic) [bifenthrin], which “effect on OCT1 activity” value (OCT1 [1]) is on record?
Answer: The value was “failed to significantly alter”.

Question: With `Cc1c(F)c(F)c(COC(=O)[C@@H]2[C@H](/C=C(\Cl)C(F)(F)F)C2(C)C)c(F)c1F` (racemic) [tefluthrin] as the compound, how does the inhibition at 100 μM (OCT1 [1]; pH 7.4) read?
Answer: Its inhibition at 100 μM is 30.1 to 48.8%.

Question: And the inhibition at 100 μM (OCT2; pH 7.4)?
Answer: The inhibition at 100 μM was ~25%.

Question: With `CC1(C)[C@H](C(=O)O[C@H](C#N)c2cccc(Oc3ccccc3)c2)[C@@H]1/C=C(\Cl)C(F)(F)F` (racemic) [λ-cyhalothrin] as the compound, how does the inhibition at 100 μM (OCT1 [1]; pH 7.4) read?
Answer: The inhibition at 100 μM was 30.1 to 48.8%.

Question: With `CC[N+](CC)(CC)CC` [TEA, tetra-ethylammonium bromide, reference compound] as the compound, how does the “effect of pre-loading on radiolabeled TEA uptake (trans-stimulation assay)” value (OCT1 [2]) read?
Answer: The value was “trans-stimulation”.

Question: For `CC1(C)[C@H](C(=O)OCc2cccc(Oc3ccccc3)c2)[C@@H]1C=C(Cl)Cl` [cis-permethrin], which “effect on OCT1 activity” value (OCT1 [1]) is on record?
Answer: The value was “failed to significantly alter”.

Question: For `CC1(C)C(C=C(Cl)Cl)C1C(=O)OC(C#N)c1ccc(F)c(Oc2ccccc2)c1` (centres unmarked) [cyfluthrin], which blood concentration [3] is on record?
Answer: The blood concentration was < 5 μg/L and < 12.8 nM.

Question: What does the source list for `CC1(C)C(C=C(Cl)Cl)C1C(=O)OC(C#N)c1cccc(Oc2ccccc2)c1` (centres unmarked) [cypermethrin]?
Answer: effect on P-gp activity (P-gp [4]): did not alter; blood concentration [3]: < 5 μg/L and < 12.8 nM

Question: With `CC1(C)C(C(=O)OC(C#N)c2cccc(Oc3ccccc3)c2)C1(C)C` (centres unmarked) [fenpropathrin] as the compound, how does the inhibition at 100 μM (OCT1 [1]; pH 7.4) read?
Answer: Its inhibition at 100 μM is 30.1 to 48.8%.

Question: For `CC(C)[C@H](Nc1ccc(C(F)(F)F)cc1Cl)C(=O)OC(C#N)c1cccc(Oc2ccccc2)c1` (some centres unmarked) [fluvalinate], which “effect on P-gp activity” value (P-gp [4]) is on record?
Answer: Its value is “did not alter”.

Question: What about the “effect on P-gp activity or ATPase activity” value (P-gp [5]) of the same compound?
Answer: Its value is “inhibit”.

Question: For `CC1(C)[C@H](C=C(Cl)Cl)[C@H]1C(=O)OCc1cccc(Oc2ccccc2)c1` [trans-permethrin], which inhibition at 100 μM (OCT1 [1]; pH 7.4) is on record?
Answer: Its inhibition at 100 μM is 30.1 to 48.8%.

Question: What about the inhibition at 100 μM (OCT2; [6]) of the same compound?
Answer: The inhibition at 100 μM was ~25%.

Question: With `CC1(C)[C@H](C=C(Cl)Cl)[C@H]1C(=O)O[C@@H](C#N)c1cccc(Oc2ccccc2)c1` [β-cypermethrin] as the compound, how does the inhibition at 100 μM (OCT1 [1]; HEK-OCT1 cells, pH 7.4, probe DAPI) read?
Answer: Its inhibition at 100 μM is 30.1%.

Question: And the inhibition at 100 μM (OCT2; [6])?
Answer: The inhibition at 100 μM was ~25%.

Question: With `CC(C)[C@@H](Nc1ccc(C(F)(F)F)cc1Cl)C(=O)OC(C#N)c1cccc(Oc2ccccc2)c1` (some centres unmarked) [τ-fluvalinate] as the compound, how does the “effect on OCT1 activity” value (OCT1 [1]) read?
Answer: Its value is “failed to significantly alter”.

Question: And the inhibition at 100 μM (OAT1)?
Answer: Its inhibition at 100 μM is 42.8%.

Question: And the inhibition at 100 μM (OAT3)?
Answer: The inhibition at 100 μM was 15.6%.

Question: And the inhibition at 100 μM (OCT2; pH 7.4)?
Answer: Its inhibition at 100 μM is ~25%.
